Measured values taken from ChEMBL document CHEMBL1128215, “Introduction of a conformational switching element on a pyrrolidine ring. Synthesis and evaluation of (R*,R*)-(+/-)-methyl 3-acetyl-4-[3- (cyclopentyloxy)-4-methoxyphenyl]-3-methyl-1-pyrrolidinecarboxylate, a potent and selective inhibitor of cAMP-specific phosphodiesterase” (J Med Chem, 1995).

Experiments:
Phosphodiesterase 4 = Phosphodiesterase 4 (Homo sapiens, UniProt P27815+Q08499+Q07343+Q08493); test: Inhibition of cAMP hydrolysis by human Phosphodiesterase 4; format: protein assay
[1] = molecular target: High affinity 3',5'-cyclic-AMP phosphodiesterase 7A (Homo sapiens, UniProt Q13946); test: Inhibition of human Phosphodiesterase 7
Phosphodiesterase 3 = Phosphodiesterase 3 (Homo sapiens, UniProt Q14432+Q13370); test: Inhibition of Phosphodiesterase 3 from human pulmonary artery; format: tissue-based
[2] = molecular target: T1, cGMP-dependent 3',5'-cyclic phosphodiesterase (Bos taurus, UniProt P14099); test: Inhibition of bovine Phosphodiesterase 2
T1 sequence (P14099 whole entry): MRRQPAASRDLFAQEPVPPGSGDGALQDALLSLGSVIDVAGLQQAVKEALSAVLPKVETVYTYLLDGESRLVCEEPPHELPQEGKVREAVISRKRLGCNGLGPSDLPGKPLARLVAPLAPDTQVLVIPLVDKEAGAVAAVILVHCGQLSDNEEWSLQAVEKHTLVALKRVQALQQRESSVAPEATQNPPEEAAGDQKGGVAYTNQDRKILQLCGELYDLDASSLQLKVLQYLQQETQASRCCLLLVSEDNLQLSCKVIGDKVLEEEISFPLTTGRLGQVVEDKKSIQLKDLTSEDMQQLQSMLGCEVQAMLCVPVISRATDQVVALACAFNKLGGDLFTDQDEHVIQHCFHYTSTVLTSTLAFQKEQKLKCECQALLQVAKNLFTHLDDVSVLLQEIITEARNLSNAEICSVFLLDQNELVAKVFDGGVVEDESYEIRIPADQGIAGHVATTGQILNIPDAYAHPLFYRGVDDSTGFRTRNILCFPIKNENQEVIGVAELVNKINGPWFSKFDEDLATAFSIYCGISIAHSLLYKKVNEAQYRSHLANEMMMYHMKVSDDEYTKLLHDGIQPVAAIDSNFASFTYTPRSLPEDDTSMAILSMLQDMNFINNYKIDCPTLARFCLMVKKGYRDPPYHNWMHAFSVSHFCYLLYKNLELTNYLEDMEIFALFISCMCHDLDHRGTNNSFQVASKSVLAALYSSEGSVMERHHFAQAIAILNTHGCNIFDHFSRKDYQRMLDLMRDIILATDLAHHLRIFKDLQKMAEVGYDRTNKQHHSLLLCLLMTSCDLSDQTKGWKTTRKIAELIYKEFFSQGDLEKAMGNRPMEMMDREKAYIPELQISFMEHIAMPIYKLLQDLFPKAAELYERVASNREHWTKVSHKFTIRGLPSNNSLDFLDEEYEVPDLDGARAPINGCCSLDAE

Phosphodiesterase 6 = test: Inhibition of Phosphodiesterase 6 from bovine retina; format: protein assay, Bos taurus
Phosphodiesterase 1 = Phosphodiesterase 1 (Bos taurus, UniProt Q01061+P14100); test: Inhibition of Phosphodiesterase 1 from bovine aorta; format: protein assay
[3] = molecular target: cGMP-specific 3',5'-cyclic phosphodiesterase (Homo sapiens, UniProt O76074); test: Inhibition of Phosphodiesterase 5 isolated from human trachea; format: tissue-based

High affinity 3',5'-cyclic-AMP phosphodiesterase 7A, sequence (Q13946 whole entry): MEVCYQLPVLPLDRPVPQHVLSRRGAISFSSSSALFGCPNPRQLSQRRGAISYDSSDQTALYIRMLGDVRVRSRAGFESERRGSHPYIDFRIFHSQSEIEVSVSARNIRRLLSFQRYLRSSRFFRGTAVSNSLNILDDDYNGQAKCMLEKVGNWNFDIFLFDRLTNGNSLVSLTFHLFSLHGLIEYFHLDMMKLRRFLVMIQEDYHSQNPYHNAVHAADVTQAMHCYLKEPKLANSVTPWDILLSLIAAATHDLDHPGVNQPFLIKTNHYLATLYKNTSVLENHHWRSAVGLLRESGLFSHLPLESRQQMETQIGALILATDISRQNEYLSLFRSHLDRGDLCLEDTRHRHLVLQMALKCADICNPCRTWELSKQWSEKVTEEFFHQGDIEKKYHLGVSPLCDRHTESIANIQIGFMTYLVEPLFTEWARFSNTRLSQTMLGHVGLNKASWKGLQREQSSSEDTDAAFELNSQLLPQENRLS

Q: For `COC(=O)N1C[C@@H](CO)[C@H](c2ccc(OC)c(OC3CCCC3)c2)C1`, which Ki (Phosphodiesterase 4) is on record?
A: The Ki was 224 nM.

Q: With `COC(=O)N1C[C@@H](c2ccc(OC)c(OC3CCCC3)c2)[C@](C)(C(=O)OC)C1` as the compound, how does the Ki (Phosphodiesterase 4) read?
A: The Ki was 3 nM.

Q: `COC(=O)N1C[C@@H](c2ccc(OC)c(OC3CCCC3)c2)[C@](C)(CO)C1` was tested. Which Ki (Phosphodiesterase 4) did it give?
A: The Ki was 37 nM.

Q: `COC(=O)N1C[C@@H](c2ccc(OC)c(OC3CCCC3)c2)[C@](C)(C(C)=O)C1` was tested. Which Ki [1] did it give?
A: The Ki was 7900 nM.

Q: And the Ki (Phosphodiesterase 3)?
A: The Ki was over 100000 nM.

Q: And the Ki [2]?
A: The Ki was over 100000 nM.

Q: What about the Ki (Phosphodiesterase 6) of the same compound?
A: The Ki was over 100000 nM.

Q: And the Ki (Phosphodiesterase 1)?
A: Its Ki is over 100000 nM.

Q: And the Ki [3]?
A: Its Ki is over 100000 nM.

Q: And the Ki (Phosphodiesterase 4)?
A: The Ki was 1 nM.

Q: Which Ki (Phosphodiesterase 4) does the source give for `COC(=O)N1C[C@@H](C(C)=O)[C@H](c2ccc(OC)c(OC3CCCC3)c2)C1` here?
A: The Ki was 33 nM.

Q: With `COC(=O)[C@@H]1CN(C(=O)OC)C[C@H]1c1ccc(OC)c(OC2CCCC2)c1` as the compound, how does the Ki (Phosphodiesterase 4) read?
A: Its Ki is 159 nM.

Q: How did the Ki (Phosphodiesterase 4) turn out when `COC(=O)N1CC[C@H](c2ccc(OC)c(OC3CCCC3)c2)C1` was run?
A: Its Ki is 110 nM.

Q: With `CCOC(=O)[C@]1(C)CN(C(=O)OC)C[C@H]1c1ccc(OC)c(OC2CCCC2)c1` as the compound, how does the Ki (Phosphodiesterase 4) read?
A: The Ki was 86 nM.

Q: `COC(=O)N1C[C@H](C)[C@H](c2ccc(OC)c(OC3CCCC3)c2)C1` was tested. Which Ki (Phosphodiesterase 4) did it give?
A: The Ki was 100 nM.

Q: Which Ki (Phosphodiesterase 4) does the source give for `CCOC(=O)[C@@H]1CN(C(=O)OC)C[C@H]1c1ccc(OC)c(OC2CCCC2)c1` here?
A: Its Ki is 550 nM.

Q: `CC[C@@]1(C(C)=O)CN(C(=O)OC)C[C@H]1c1ccc(OC)c(OC2CCCC2)c1` was tested. Which Ki (Phosphodiesterase 4) did it give?
A: Its Ki is 10 nM.
